Assay results taken from article PMC12888861, “Antibacterial activity of enmetazobactam against Acinetobacter spp.: a molecular dissection of mechanism of action and resistance determinants” (Antimicrobial Agents and Chemotherapy, 2025).

Tests used:
[1] = system: carbapenem-susceptible A. baumannii isolates (n = 54); assay: MIC, broth microdilution (EUCAST), carbapenem-susceptible A. baumannii isolates; format: cell-based, Acinetobacter baumannii
Source text: The bacterial strains used in this study comprised 208 clinical isolates from the Spanish National Acinetobacter spp. 2020 Multicenter Collection, which was previously characterized in detail by our research group, including whole-genome sequencing, phylogenetics studies, clonal dynamics, and resistance mechanisms ([2], [29]). Additionally, a collection of A. baumannii ATCC 17978 transformants coding the blaOXA-23, blaOXA-24/40, blaOXA-51, blaOXA-58, blaOXA-143, and blaOXA-201 genes, previously constructed and described by our group ([30]), was used to determine the activity of enmetazobactam against strains carrying the main CHDLs of A. baumannii.
The antimicrobial susceptibility of the 208 Acinetobacter spp. isolates was assessed using the broth microdilution method, as described in the European Committee on Antimicrobial Susceptibility Testing (EUCAST) v.15 guidelines (http://www.eucast.org/clinical_breakpoints). […] MICs for enmetazobactam alone were assessed as well. […] Subsequently, MIC testing was also conducted with a collection of A. baumannii ATCC 17978 transformants expressing clinically relevant OXA-like carbapenemase genes.
The A. baumannii ATCC 19606 strain was used as the reference strain in all susceptibility experiments, in duplicate assays. Antibiotics were purchased from Sigma-Aldrich, except enmetazobactam and durlobactam, which were obtained from Advanz Pharma and MedChemExpress, respectively.

[2] = system: A. baumannii ATCC 19606 cells; assay: Cell morphology assay, bright-field microscopy; format: cell-based, Acinetobacter baumannii; conditions: A. baumannii ATCC 19606, overnight exposure at 1× MIC
Procedure: In order to confirm the involvement of PBPs as targets of enmetazobactam, cell morphology assays involving exposure to enmetazobactam and sulbactam were performed following the methodology described in Supplementary materials and methods.
To confirm the involvement of PBPs as targets of enmetazobactam, the cellular morphology of A. baumannii ATCC 19606 reference strain was analyzed after exposure to the compound at different concentrations. Bright-field microscopy was used to monitor the cell morphology. […] For microscopic visualization, aliquots of each sample were obtained, stained with crystal violet solution and observed using an Olympus BX61 microscope (Olympus).
Changes in cell morphology were determined on the basis of alterations in septal integrity, abnormal elongation, spheroplast formation and filamentation, patterns previously associated with the selective inhibition of PBP1, PBP2 and PBP3 in Gram-negative bacilli. Specifically, PBP1 inhibition has been linked to cell lysis, PBP2 inhibition has been linked to spherification, and PBP3 inhibition to defective cell division and filament formation (1, 2). The results were qualitatively compared across different treatments to infer the potential selectivity of enmetazobactam for specific PBPs.

[3] = Acinetobacter baumannii, carbapenem-susceptible A. baumannii isolates (n = 54), ETZ fixed 8 mg/L in combinations

CC1(C)[C@H](C(=O)O)N2C(=O)C[C@H]2S1(=O)=O [sulbactam]
long filaments: cell morphology [2]
100: MIC distribution 4 [1] | MIC distribution 8 [1] | MIC distribution 16 [1] | MIC distribution ≥32 [1]
1 µg/mL: MIC ([1]; Acinetobacter baumannii, MBC set, isolate Ab11, A. baumannii ST 239, ADC-2, OXA-51, non-CHDLs-producing) | MIC ([1]; Acinetobacter baumannii, isolate Ab1, ST 164, ADC-6, OXA-91, in combinations ETZ fixed at 8 mg/L) | MIC ([1]; Acinetobacter baumannii, isolate Ab11, ST 239, ADC-2, OXA-51, in combinations ETZ fixed at 8 mg/L) | MIC ([1]; Acinetobacter baumannii, isolate Ab38, ST 866, ADC-2, OXA-385, in combinations ETZ fixed at 8 mg/L) | MIC ([1]; Acinetobacter baumannii, isolate Ab40, ST 2176, ADC-2, OXA-64, in combinations ETZ fixed at 8 mg/L) | MIC ([1]; Acinetobacter baumannii, isolate Ab50, ST 2176, ADC-2, OXA-64, in combinations ETZ fixed at 8 mg/L) | MIC ([1]; Acinetobacter baumannii, isolate Ab57, ST 1470, ADC-58, OXA-106, in combinations ETZ fixed at 8 mg/L) | MIC ([1]; Acinetobacter baumannii, isolate Ab62, ST 265, ADC-2, OXA-91, in combinations ETZ fixed at 8 mg/L) | MIC ([1]; Acinetobacter baumannii, isolate Ab67, ST 1, ADC-11, OXA-69, in combinations ETZ fixed at 8 mg/L) | MIC ([1]; Acinetobacter baumannii, isolate Ab79, ST 106, ADC-11, OXA-78, in combinations ETZ fixed at 8 mg/L) | MIC ([1]; Acinetobacter baumannii, isolate Ab93, ST 25, ADC-79, OXA-64, in combinations ETZ fixed at 8 mg/L) | MIC ([1]; Acinetobacter baumannii, isolate Ab95, ST 582, ADC-5, OXA-317, in combinations ETZ fixed at 8 mg/L) | MIC ([1]; Acinetobacter baumannii, isolate Ab96, ST 582, ADC-5, OXA-317, in combinations ETZ fixed at 8 mg/L) | MIC ([1]; Acinetobacter baumannii, isolate Ab100, ST 145, ADC-58, OXA-343, in combinations ETZ fixed at 8 mg/L) | MIC ([1]; Acinetobacter baumannii, isolate Ab110, ST 1623, ADC-3, OXA-70, in combinations ETZ fixed at 8 mg/L) | MIC ([1]; Acinetobacter baumannii, isolate Ab124, ST 2176, ADC-2, OXA-64, in combinations ETZ fixed at 8 mg/L) | MIC ([1]; Acinetobacter baumannii, isolate Ab128, ST 2176, ADC-2, OXA-64, in combinations ETZ fixed at 8 mg/L) | MIC ([1]; Acinetobacter baumannii, isolate Ab131, ST 687, ADC-like, OXA-208, in combinations ETZ fixed at 8 mg/L) | MIC ([1]; Acinetobacter baumannii, isolate Ab136, ST 2183, ADC-like, OXA-66, in combinations ETZ fixed at 8 mg/L) | MIC ([1]; Acinetobacter baumannii, isolate Ab139, ST 54, ADC-like, OXA-365, in combinations ETZ fixed at 8 mg/L) | MIC ([1]; Acinetobacter baumannii, isolate Ab149, ST 1112, ADC-6, OXA-407, in combinations ETZ fixed at 8 mg/L) | MIC ([1]; Acinetobacter baumannii, isolate Ab152, ST 132, ADC-2, OXA-120, in combinations ETZ fixed at 8 mg/L) | MIC ([1]; Acinetobacter baumannii, isolate Ab170, ST 2110, ADC-4, OXA-338, in combinations ETZ fixed at 8 mg/L) | MIC ([1]; Acinetobacter baumannii, isolate Ab185, ST 2, ADC-26, OXA-66, in combinations ETZ fixed at 8 mg/L) | MIC ([1]; Acinetobacter baumannii, isolate Ab187, ST 105, ADC-2, OXA-430, in combinations ETZ fixed at 8 mg/L) | MIC ([1]; Acinetobacter baumannii, isolate Ab188, ST 203, ADC-6, OXA-217, PDC-1, in combinations ETZ fixed at 8 mg/L) | MIC ([1]; Acinetobacter baumannii, isolate Ab195, ST 1, ADC-11, OXA-69, in combinations ETZ fixed at 8 mg/L) | MIC ([1]; Acinetobacter baumannii, isolate Ab202, ST 1, ADC-11, OXA-69, in combinations ETZ fixed at 8 mg/L) | MIC ([1]; Acinetobacter baumannii, isolate Ab218, in combinations ETZ fixed at 8 mg/L) | MIC50 [1, 3]
4 µg/mL: MIC ([1]; Acinetobacter baumannii, isolate Ab80, ST 2182, ADC-6, OXA-208, in combinations ETZ fixed at 8 mg/L) | MIC ([1]; Acinetobacter baumannii, isolate Ab142, ST 1, ADC-like, OXA-69, in combinations ETZ fixed at 8 mg/L)
27.8: MIC distribution 0.5 [1]
0: MIC distribution 0.12 [1] | MIC distribution 0.25 [1] | MIC distribution ≤0.06 [1]
0.5 µg/mL: MIC ([1]; Acinetobacter baumannii, MBC set, isolate Ab1, A. baumannii ST 164, ADC-6, OXA-91, non-CHDLs-producing) | MIC ([1]; Acinetobacter baumannii, MBC set, isolate Ab34, A. baumannii ST 2182, ADC-2, OXA-130, non-CHDLs-producing) | MIC ([1]; Acinetobacter baumannii, isolate Ab34, ST 2182, ADC-2, OXA-130, in combinations ETZ fixed at 8 mg/L) | MIC ([1]; Acinetobacter baumannii, isolate Ab112, ST 193, ADC-like, OXA-120, in combinations ETZ fixed at 8 mg/L) | MIC ([1]; Acinetobacter baumannii, isolate Ab158, ST 2034, ADC-2, OXA-217, in combinations ETZ fixed at 8 mg/L) | MIC ([1]; Acinetobacter baumannii, isolate Ab163, ST 132, ADC-2, OXA-120, in combinations ETZ fixed at 8 mg/L) | MIC ([1]; Acinetobacter baumannii, isolate Ab167, ST 1623, ADC-like, OXA-345, in combinations ETZ fixed at 8 mg/L) | MIC ([1]; Acinetobacter baumannii, isolate Ab168, ST 1470, ADC-75, OXA-402, in combinations ETZ fixed at 8 mg/L) | MIC ([1]; Acinetobacter baumannii, isolate Ab189, ST 1405, ADC-3, OXA-120, in combinations ETZ fixed at 8 mg/L) | MIC ([1]; Acinetobacter baumannii, isolate Ab190, ST 2186, ADC-6, OXA-413, in combinations ETZ fixed at 8 mg/L) | MIC ([1]; Acinetobacter baumannii, isolate Ab193, ST 164, ADC-6, OXA-91, in combinations ETZ fixed at 8 mg/L) | MIC ([1]; Acinetobacter baumannii, isolate Ab200, ST 1336, ADC-2, OXA-51, in combinations ETZ fixed at 8 mg/L) | MIC ([1]; Acinetobacter baumannii, isolate Ab203, ST 221, ADC-6, OXA-88, in combinations ETZ fixed at 8 mg/L) | MIC ([1]; Acinetobacter baumannii, isolate Ab206, ST 2187, ADC-58, OXA-69, in combinations ETZ fixed at 8 mg/L) | MIC ([1]; Acinetobacter baumannii, isolate Ab209, in combinations ETZ fixed at 8 mg/L) | MIC ([1]; Acinetobacter baumannii, isolate Ab213, in combinations ETZ fixed at 8 mg/L) | MIC ([1]; Acinetobacter baumannii, isolate Ab220, in combinations ETZ fixed at 8 mg/L)
96.3: MIC distribution 2 [1]
79.6: MIC distribution 1 [1]
2 µg/mL: MIC ([1]; Acinetobacter baumannii, isolate Ab58, ST 6, ADC-2, OXA-94, in combinations ETZ fixed at 8 mg/L) | MIC ([1]; Acinetobacter baumannii, isolate Ab61, ST 1639, ADC-7, OXA-64, in combinations ETZ fixed at 8 mg/L) | MIC ([1]; Acinetobacter baumannii, isolate Ab81, ST 25, ADC-79, OXA-64, in combinations ETZ fixed at 8 mg/L) | MIC ([1]; Acinetobacter baumannii, isolate Ab127, ST 2176, ADC-2, OXA-64, in combinations ETZ fixed at 8 mg/L) | MIC ([1]; Acinetobacter baumannii, isolate Ab130, ST 32, ADC-79, OXA-100, in combinations ETZ fixed at 8 mg/L) | MIC ([1]; Acinetobacter baumannii, isolate Ab132, ST 1112, ADC-79, OXA-89, in combinations ETZ fixed at 8 mg/L) | MIC ([1]; Acinetobacter baumannii, isolate Ab143, ST 1328, ADC-76, OXA-408, in combinations ETZ fixed at 8 mg/L) | MIC ([1]; Acinetobacter baumannii, isolate Ab150, ST 2184, ADC-like, OXA-64, in combinations ETZ fixed at 8 mg/L) | MIC ([1]; Acinetobacter baumannii, isolate Ab172, ST 2185, ADC-5, OXA-217, in combinations ETZ fixed at 8 mg/L) | MIC90 [1, 3]
